Assay results as given in ChEMBL document CHEMBL5303573, “Mapping human microbiome drug metabolism by gut bacteria and their genes” (Nature, 2019).

Key:
[1] = The drug is tested on Clostridium scindens strain: ATCC35704 for biotransformation. The drug concentrations were measured before and after a 12-h incubation by liquid-chromatography-coupled mass spectrometry (LC–MS); conditions: 2 µM
[2] = The drug is tested on Bacteroides finegoldii strain: DSM17565 for biotransformation. The drug concentrations were measured before and after a 12-h incubation by liquid-chromatography-coupled mass spectrometry (LC–MS); conditions: 2 µM
[3] = The drug is tested on Anaerococcus hydrogenalis strain: DSM7454 for biotransformation. The drug concentrations were measured before and after a 12-h incubation by liquid-chromatography-coupled mass spectrometry (LC–MS); conditions: 2 µM
[4] = The drug is tested on Clostridium symbiosum strain: ATCC14940 for biotransformation. The drug concentrations were measured before and after a 12-h incubation by liquid-chromatography-coupled mass spectrometry (LC–MS); conditions: 2 µM
[5] = The drug is tested on Clostridium asparagiforme strain: DSM15981 for biotransformation. The drug concentrations were measured before and after a 12-h incubation by liquid-chromatography-coupled mass spectrometry (LC–MS); type: ADME; parameters: dose 2 uM, timepoint 0 vs 12 hours; conditions: enterocloster asparagiformis, 2 µM
[6] = bacteroides stercoris, 12 h, 2 µM
Description: The drug is tested on Bacteroides stercoris strain: ATCC43183 for biotransformation. The drug concentrations were measured before and after a 12-h incubation by liquid-chromatography-coupled mass spectrometry (LC–MS)

[7] = bifidobacterium adolescentis, 12 h, 2 µM
Description: The drug is tested on Bifidobacterium adolescentis strain: ATCC 15703 for biotransformation. The drug concentrations were measured before and after a 12-h incubation by liquid-chromatography-coupled mass spectrometry (LC–MS)

[8] = The drug is tested on Enterococcus faecalis strain: V583 for biotransformation. The drug concentrations were measured before and after a 12-h incubation by liquid-chromatography-coupled mass spectrometry (LC–MS); conditions: 2 µM
[9] = bacteroides eggerthii, 12 h, 2 µM
Description: The drug is tested on Bacteroides eggerthii strain: DSM20697 for biotransformation. The drug concentrations were measured before and after a 12-h incubation by liquid-chromatography-coupled mass spectrometry (LC–MS)

[10] = anaerostipes sp., 12 h, 2 µM
Description: The drug is tested on Anaerostipes sp. strain: fecal isolate for biotransformation. The drug concentrations were measured before and after a 12-h incubation by liquid-chromatography-coupled mass spectrometry (LC–MS)

[11] = The drug is tested on Subdoligranulum variabile strain: DSM15176 for biotransformation. The drug concentrations were measured before and after a 12-h incubation by liquid-chromatography-coupled mass spectrometry (LC–MS); conditions: 2 µM
[12] = The drug is tested on Clostridium sp. strain: fecal isolate for biotransformation. The drug concentrations were measured before and after a 12-h incubation by liquid-chromatography-coupled mass spectrometry (LC–MS); conditions: 2 µM
[13] = The drug is tested on Eubacterium ventriosum strain: ATCC27560 for biotransformation. The drug concentrations were measured before and after a 12-h incubation by liquid-chromatography-coupled mass spectrometry (LC–MS); type: ADME; parameters: dose 2 uM, timepoint 0 vs 12 hours; conditions: 2 µM
[14] = The drug is tested on Odoribacter splanchnicus strain: fecal isolate for biotransformation. The drug concentrations were measured before and after a 12-h incubation by liquid-chromatography-coupled mass spectrometry (LC–MS); conditions: 2 µM
[15] = The drug is tested on Bacteroides cellulosilyticus strain: DSM14838 for biotransformation. The drug concentrations were measured before and after a 12-h incubation by liquid-chromatography-coupled mass spectrometry (LC–MS); conditions: 2 µM
[16] = limosilactobacillus reuteri cf48-3a, 12 h, 2 µM
Description: The drug is tested on Lactobacillus reuteri CF48-3A strain: BEI HM-102 for biotransformation. The drug concentrations were measured before and after a 12-h incubation by liquid-chromatography-coupled mass spectrometry (LC–MS)

[17] = The drug is tested on Blautia hansenii strain: DSM20583 for biotransformation. The drug concentrations were measured before and after a 12-h incubation by liquid-chromatography-coupled mass spectrometry (LC–MS); conditions: 2 µM
[18] = bacteroides thetaiotaomicron, 12 h, 2 µM
Description: The drug is tested on Bacteroides thetaiotaomicron strain: 7330 for biotransformation. The drug concentrations were measured before and after a 12-h incubation by liquid-chromatography-coupled mass spectrometry (LC–MS)

[19] = The drug is tested on Providencia stuartii strain: ATCC25827 for biotransformation. The drug concentrations were measured before and after a 12-h incubation by liquid-chromatography-coupled mass spectrometry (LC–MS); conditions: 2 µM
[20] = bacteroides fragilis, 12 h, 2 µM
Description: The drug is tested on Bacteroides fragilis strain: 3397 (T10) for biotransformation. The drug concentrations were measured before and after a 12-h incubation by liquid-chromatography-coupled mass spectrometry (LC–MS)

Row | SMILES | Bacterial Biotransformation [1] | Bacterial Biotransformation [2] | Bacterial Biotransformation [3] | Bacterial Biotransformation [4] | Bacterial Biotransformation [5] | Bacterial Biotransformation [6] | Bacterial Biotransformation [7] | Bacterial Biotransformation [8] | Bacterial Biotransformation [9] | Bacterial Biotransformation [10] | Bacterial Biotransformation [11] | Bacterial Biotransformation [12] | Bacterial Biotransformation [13] | Bacterial Biotransformation [14] | Bacterial Biotransformation [15] | Bacterial Biotransformation [16] | Bacterial Biotransformation [17] | Bacterial Biotransformation [18] | Bacterial Biotransformation [19] | Bacterial Biotransformation [20]
1 | C[C@@H]1C[C@H]2[C@@H]3CCC4=CC(=O)C=C[C@]4(C)[C@@]3(F)[C@@H](O)C[C@]2(C)[C@@]1(O)C(=O)CO [DEXAMETHASONE] | Compound metabolized | Compound NOT metabolized | Compound NOT metabolized | Compound NOT metabolized | Compound NOT metabolized | Compound metabolized | Compound NOT metabolized | Compound NOT metabolized | Compound NOT metabolized | Compound NOT metabolized |  |  |  |  |  |  |  |  |  | 
2 | COc1c2occc2cc2ccc(=O)oc12 [METHOXSALEN] | Compound NOT metabolized | Compound metabolized | Compound NOT metabolized | Compound metabolized | Compound metabolized |  | Compound NOT metabolized | Compound NOT metabolized | Compound metabolized | Compound metabolized | Compound NOT metabolized | Compound metabolized | Compound NOT metabolized | Compound metabolized | Compound metabolized | Compound NOT metabolized | Compound metabolized |  |  | 
3 | CC(C)(C)NCC(O)COc1cccc2c1CC(O)C(O)C2 (configuration not stated) [NADOLOL] | Compound NOT metabolized | Compound NOT metabolized | Compound NOT metabolized | Compound NOT metabolized | Compound NOT metabolized | Compound NOT metabolized | Compound NOT metabolized | Compound NOT metabolized | Compound NOT metabolized | Compound NOT metabolized |  | Compound NOT metabolized | Compound NOT metabolized | Compound NOT metabolized | Compound NOT metabolized | Compound NOT metabolized |  | Compound NOT metabolized | Compound NOT metabolized | Compound NOT metabolized
4 | CC(=O)O[C@H]1C(=O)[C@@]2(C)[C@H]([C@H](OC(=O)c3ccccc3)[C@]3(O)C[C@H](OC(=O)[C@H](O)[C@@H](NC(=O)c4ccccc4)c4ccccc4)C(C)=C1C3(C)C)[C@]1(OC(C)=O)CO[C@@H]1C[C@@H]2O [PACLITAXEL] | Compound NOT metabolized | Compound NOT metabolized | Compound NOT metabolized | Compound NOT metabolized | Compound NOT metabolized | Compound NOT metabolized | Compound NOT metabolized | Compound NOT metabolized | Compound NOT metabolized | Compound NOT metabolized | Compound NOT metabolized |  |  | Compound metabolized | Compound NOT metabolized | Compound NOT metabolized |  | Compound NOT metabolized | Compound NOT metabolized | Compound NOT metabolized
5 | CC(C)(C)NC[C@H](O)COc1ccccc1C1CCCC1.CC(C)(C)NC[C@H](O)COc1ccccc1C1CCCC1.O=S(=O)(O)O [PENBUTOLOL SULFATE] | Compound NOT metabolized | Compound NOT metabolized | Compound NOT metabolized | Compound NOT metabolized | Compound NOT metabolized | Compound NOT metabolized | Compound NOT metabolized | Compound NOT metabolized | Compound NOT metabolized | Compound NOT metabolized | Compound NOT metabolized | Compound metabolized | Compound NOT metabolized | Compound NOT metabolized | Compound NOT metabolized | Compound NOT metabolized |  | Compound NOT metabolized | Compound NOT metabolized | 
6 | CCc1nc(N)nc(N)c1-c1ccc(Cl)cc1 [PYRIMETHAMINE] | Compound NOT metabolized | Compound NOT metabolized | Compound NOT metabolized | Compound NOT metabolized | Compound NOT metabolized | Compound NOT metabolized | Compound NOT metabolized | Compound NOT metabolized | Compound NOT metabolized | Compound NOT metabolized |  | Compound NOT metabolized | Compound NOT metabolized | Compound NOT metabolized | Compound NOT metabolized | Compound NOT metabolized | Compound NOT metabolized | Compound NOT metabolized | Compound NOT metabolized | Compound NOT metabolized
7 | COC(=O)[C@H]1[C@H]2C[C@@H]3c4[nH]c5cc(OC)ccc5c4CCN3C[C@H]2C[C@@H](OC(=O)c2cc(OC)c(OC)c(OC)c2)[C@@H]1OC [RESERPINE] |  |  | Compound NOT metabolized |  | Compound NOT metabolized | Compound NOT metabolized | Compound NOT metabolized | Compound NOT metabolized | Compound NOT metabolized | Compound NOT metabolized |  | Compound NOT metabolized |  |  | Compound NOT metabolized | Compound NOT metabolized | Compound NOT metabolized | Compound NOT metabolized | Compound NOT metabolized | Compound NOT metabolized
